Legend:
[1] = target: T1, SOCS2 (SBC2) (Homo sapiens, UniProt O14508); assay: Intact ESI-MS of recombinant protein, covalent modification; assay type: biochemical
T1 construct: SOCS2 (amino acids 32–198); His6 (N, cleaved yes); made in house; host or cells: E. coli BL21(DE3)
Protocol: SBC2 protein (40 µM), SBC2 C111S, SBC4, SBC6, or CISH were incubated with an equimolar concentration of MN551 in 50 mM Tris, pH 8.0, 50 mM NaCl, 1 mM TCEP. At defined time points 20 µl samples were removed and the protein precipitated by the addition of 80 µl methanol. The precipitated protein was pelleted by centrifugation, washed with 500 µl methanol, and resuspended in an aqueous solution of 15% acetonitrile and 1% TFA. Samples were separated by HPLC on a C3 column using a 10–75% gradient of acetonitrile and analyzed using an Agilent 6130 quadrupole MS. Spectra were deconvoluted and integrated using Agilent LC/MSD ChemStation.

[2] = In-cell time-resolved 19F-NMR of prodrug unmasking; assay type: in vitro ADME; conditions: human, K562 cell suspension (65% v/v cell content), 37 °C, read-out: half-life time of prodrug unmasking in cells
Excerpt: (§1) Although, with the live-cell CETSA setup we could rank the prodrugs for overall potency, we cannot decouple the individual contributions of cellular permeability and prodrug unmasking rate. To understand the rate of unmasking inside the live cells, we developed an in-cell time-resolved ^19F-NMR to monitor the rate of POM group unmasking (Fig. 5). ^19F-NMR is uniquely suited for this task due to the high receptivity of ^19F, low background in biological samples, and remarkable sensitivity of ^19F chemical shifts to their chemical environment[43],[44]. The latter means that even the distant fluorine of MN551 could act as a reporter for the presence of the masking group on the phosphotyrosine moiety. […] While the downfield peak starts off with higher intensity, it loses intensity quickly and within an hour is overtaken by the growing upfield peak. Within 3 h the downfield peak completely disappears and only the upfield peak is observed. […]
(§2) K562 cells were maintained in IMDM media supplemented with 10% FBS. […] To confirm the identity of the observed species, the lysate was sequentially spiked with 500 µM MN551 and prodrug and measured again. […] All spectra were processed and analyzed using Topspin 4.1.1.

[3] = test system: K562 cells; assay: In-cell time-resolved 19F-NMR of prodrug unmasking; assay type: in vitro ADME; conditions: K562 cell suspension, 500 µM, 37 °C
Excerpt: as §1, §2

T1 sequence (O14508 32-198): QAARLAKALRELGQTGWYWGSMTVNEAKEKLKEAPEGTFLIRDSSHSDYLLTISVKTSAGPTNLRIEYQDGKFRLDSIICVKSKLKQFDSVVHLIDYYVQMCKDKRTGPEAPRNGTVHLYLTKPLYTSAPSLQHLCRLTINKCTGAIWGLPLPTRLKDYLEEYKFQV
T1 sequence (Q15369 17-112, further chain): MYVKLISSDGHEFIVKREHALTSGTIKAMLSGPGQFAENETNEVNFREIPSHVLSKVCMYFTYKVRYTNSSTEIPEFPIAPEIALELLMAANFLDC
T1 sequence (Q15370 1-104, further chain): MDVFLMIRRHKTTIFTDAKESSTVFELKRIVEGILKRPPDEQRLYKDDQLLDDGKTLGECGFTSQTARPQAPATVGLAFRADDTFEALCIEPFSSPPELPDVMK

O=C(CCl)Nc1cccc(CNC(=O)[C@H](Cc2ccc(OP(=O)(O)O)cc2)NC(=O)Cc2ccc(F)cc2)c1 [MN551]
covalent adduct observed by intact mass analysis ([1]; SBC2 (40 µM) treated with MN551 (40 µM)): 1:1 covalent SOCS2:MN551 adduct and single covalent adduct
time to stoichiometric occupancy at Cys111 ([1]; recombinant SOCS2, equimolar compound): ≤ 2 h

CC(C)(C)C(=O)OCOP(=O)(OCOC(=O)C(C)(C)C)Oc1ccc(C[C@H](NC(=O)Cc2ccc(F)cc2)C(=O)NCc2cccc(NC(=O)CCl)c2)cc1 [MN714]
half-life at 500 µM [2]: 1 to 1.5 h
time to complete disappearance of the prodrug (downfield) peak [3]: ≤ 3 h
